Data from patent US20050095219A1, “Compositions for promoting vaginal cell proliferation and maturation” (priority 2003, published 2005).

Assays:
[1] = system: Normal human vaginal epithelial cells (NHVE 5164); assay: Vaginal cell proliferation (CellTiter 96 Aqueous One Solution); format: cell-based; conditions: complete medium, 72 hours
Experimental: Normal human vaginal epithelial cells from Clonetics (NHVE 5164) were subcultured into 96 well plates at 37° C., 5% CO2. Cells were cultured with basal PrEBM (Clonetics CC 3165) supplemented with cell growth medium bulletKit (Clonetics, cc-3166). Cells were treated with HLA having different molecular weights (MW), HLA1 (Sigma #H1751, intrinsic viscosity=100), HLA2 (MW, 150-500 k, Carbomer #8-01250) and HLA3 (a disaccharide, MW 405, Sigma #H9649). HLA was dissolved in either basal culture medium or basal medium supplemented with growth factors (complete medium) at concentration of 100, 10 or 1 μg/ml. Control group cells were treated with culture medium only. Each treatment group included 6 samples. The media for the different samples were changed 48 hours later and cell proliferation was examined at 72 hours by using CellTiter 96 Aqueous One Solution from Promega (#TB245). Twenty μl of the reagent was added to each well. The plates were returned to cell culture incubator for 3 hours. The absorbance in each well was measured at 490 nm with a microtiter reader.

[2] = system: Primary vaginal epithelial cells; assay: Glycogen production, periodic acid Schiff (PAS) assay; format: cell-based, human; conditions: 0.1 mg/mL, 5 days treatment, p<0.05 vs control
Experimental: Primary vaginal epithelial cells were cultured in 96-well plates. Five samples were tested for each group. Treatment was for 5 days with culture medium solutions (PrEBM, Clonetics CC-3165) without (the control group) and with 0.1 mg/mL hyaluronic acid (Sigma H-1751). The media were changed every other day. At the end the treatment, the media was removed, and the well was washed twice with HBSS.
Glycogen tests were performed using a periodic acid Schiff (PAS) assay as described below. Before the test, cells were fixed with a 10 vol % Formalin/ethanol solution for 1 hour at room temperature, followed by continuous rinsing with deionized (DI) water for 1 minute. Harleco® PAS Aassay Kit (from EM Science 64945/43) was used for glycogen detection. The basic principle is that the hydroxy groups on the glycogen units were first oxidized into aldehyde groups by periodic acid, and the aldehyde groups reacted with Schiff's agent to produce a red colorant. The specific assay operations were all done at room temperature as follows: • 1. Periodic acid reagent was added to the well/chamber and allowed to stand for 10 minutes). • 2. Samples were continuously rinsed in water for one minute. • 3. Schiff's reagent was added and allowed to stand for 15 minutes. • 4. […] The numbers of glycogen-stained positive cells were manually counted under microscope.

[3] = system: E. coli with P family pili, ATCC 53505; assay: E. coli adhesion test on A431 cells; format: cell-based
Experimental: Cultured A431 cells were used as a model human epithelial cell line. A431 cells were obtained from American Cell Type Culture Collection, catalog # CRL-1555. A monolayer of A431 cells was grown on a 24-well tissue culture plate until confluent. E. coli with P family pili, ATCC 53505, were cultured in trypticase soy broth (TSB) overnight. Phosphate buffered saline (PBS, control) or hyaluronic acid (Sigma, catalog # H1876) solutions at a concentration of 1 mg/ml or 5 mg/ml in PBS were added to the A431 cell layers, using a volume of 1.2 ml/well. For comparison, a control plate was set up and treated identically as the test plate, except that the wells in the control plate were given PBS without hyaluronic acid. After incubation for 30 minutes at 37° C., 0.5 ml of solution was removed from the wells and 0.5 ml of the bacteria suspension was added. […] After 60 minutes, the supernatant in each well was removed and the wells were rinsed thoroughly with PBS to remove all non-bound bacteria. Trypticase soy broth was then added to wells, and the system was incubated at 37° C. with shaking at 100 rpm/min for 2 hours. Bacterial concentration was measured by the detection of optical density of bacterial suspension at 540 nm.
(§1) All the data are expressed as mean ± SEM and were analyzed by one-way Analysis of Variance (ANOVA) followed by a Tukey-Kramer Multiple Comparisons Test. […]

E. coli, ATCC 53505 = assay: Effect on E. coli growth (optical density at 540 nm); format: cell-based; conditions: 1 mg/ml or 5 mg/ml, 1, 2 and 3 hours
Experimental: To test whether hyaluronic acid could influence cellular growth, E. coli, ATCC 53505 cells were cultured overnight in trypticase soy broth. The culture was then diluted to an optical density of 0.1 and hyaluronic acid (1 mg/ml or 5 mg/ml) in PBS was incubated with the E. coli suspension. A control comprising a suspension E. coli treated with PBS was also prepared. The test and control cells were incubated at 37° C. with shaking and the optical density of the bacterial suspensions at 540 nm was measured at 1, 2 and 3 hours after addition of the hyaluronic acid or PBS. All the data are expressed as mean ± SEM and were analyzed by one-way Analysis of Variance (ANOVA) followed by a Tukey-Kramer Multiple Comparisons Test. Differences were considered significant at the level of p<0.05.

[4] = system: Candida albicans, ATCC 10231; assay: Candida albicans attachment to A431 cells; format: cell-based
Experimental: A culture of Candida albicans, ATCC 10231, was started in peptone/glucose culture medium and incubated at 37° C. with shaking for three days before the experiment. A monolayer of A431 cells, ATCC CRL-1555, was grown on a 24-well tissue culture plate until confluent. Hyaluronic acid at concentration of 1 mg/ml or 5 mg/ml in PBS was added to the wells (1.2 ml/well), and the plates were incubated for 30 minutes at 35° C. A control plate of confluent A431 cells was also prepared that received 1.2 ml/well PBS and no hyaluronic acid. After the 30 min incubation, 0.5 ml of solution was removed from the wells and 0.5 ml of yeast suspension (1×10^6 cfu/ml) was added. After 2 hours of incubation, the supernatant was removed from the wells and the wells were rinsed thoroughly with PBS to remove all non-bound yeast. Then, 0.2 ml of 0.25% trypsin/EDTA was added to each well and the plates were incubated at 35° C. for 15 min. Trypsinization was stopped by adding 1 ml of 10% fetal bovine serum in culture medium. The trypsinized cell/yeast suspension was centrifuged and re-suspended in 1 ml of the medium. […] The number of colonies on each plate was counted and the number of yeast attached to the cells in each well was calculated.
as §1

With hyaluronic acid [HLA2] the “vaginal cell proliferation compared to control group” value ([1]; any of the three concentrations tested (100, 10, 1 μg/ml)) was “no statistically significant effect”.

In the case of hyaluronic acid [HLA1], the “vaginal cell proliferation compared to control group” value ([1]; 100 μg/ml) is reported as “significantly promoted vaginal cell proliferation” and the “vaginal cell proliferation compared to control group” value ([1]; low concentrations 10 and 1 μg/ml) is reported as “no significant effect on cell proliferation”.

In the case of hyaluronic acid, the “glycogen production (numbers of glycogen-stained positive cells)” value [2] is reported as “increase in glycogen production was statistically significant”, the “number of E. coli attached to A431 cells” value ([3]; 1 mg/ml in PBS) is reported as “lesser effect on E. coli adhesion” and the “number of E. coli attached to A431 cells” value ([3]; 5 mg/ml in PBS) is reported as “significantly inhibited”. For the same substance, the E. coli growth (E. coli, ATCC 53505) was “neither of the hyaluronic acid solutions had any effect on bacterial growth”, the “number of Candida albicans adhering to A431 cells” value ([4]; 1 mg/ml in PBS) was “the effect was not so significant” and the “number of Candida albicans adhering to A431 cells” value ([4]; 5 mg/ml in PBS) was “significantly inhibited”.
